Test results from ChEMBL document CHEMBL1130828, “Synthesis and biological activities of phenyl piperazine-based peptidomimetic growth hormone secretagogues” (Bioorg Med Chem Lett, 1998).

Species on record: Rattus norvegicus
Test: Concentration required for GH-releasing activity in the rat pituitary cell assay was determined in vitro
Type: functional
Conditions: Pituitary gland cell

Row | Compound | EC50 [µM]
1 | CC(C)(N)C(=O)N[C@H](CCCc1ccccc1)C(=O)N1CCN(c2ccccc2NS(C)(=O)=O)CC1 | 0.0063
2 | COC(=O)CS(=O)(=O)Nc1ccccc1N1CCN(C(=O)[C@@H](CCCc2ccccc2)NC(=O)C(C)(C)N)CC1 | 0.0045
3 | Cc1ccccc1N1CCN(C(=O)[C@@H](CCCc2ccccc2)NC(=O)C(C)(C)N)CC1 | 0.1
4 | CC(C)S(=O)(=O)Nc1ccccc1N1CCN(C(=O)[C@@H](CCCc2ccccc2)NC(=O)C(C)(C)N)CC1 | 0.0028
5 | Cc1ccccc1N1CCN(C(=O)[C@@H](Cc2c[nH]c3ccccc23)NC(=O)C(C)(C)N)CC1 | 0.15
6 | CC(C)(N)C(=O)N[C@H](Cc1c[nH]c2ccccc12)C(=O)N1CCN(c2ccccc2Cl)CC1 | 0.76
7 | COc1ccccc1N1CCN(C(=O)[C@@H](Cc2c[nH]c3ccccc23)NC(=O)C(C)(C)N)CC1 | 0.49
8 | CC(C)c1ccccc1N1CCN(C(=O)[C@@H](Cc2c[nH]c3ccccc23)NC(=O)C(C)(C)N)CC1 | 0.21
9 | CC(C)(N)C(=O)N[C@H](CCCc1ccccc1)C(=O)N1CCN(c2ccccc2NS(=O)(=O)CC(=O)O)CC1 | 0.0023
10 | CC(C)(N)C(=O)N[C@H](CCCc1ccccc1)C(=O)N1CCN(c2ccccc2NS(=O)(=O)C(F)(F)F)CC1 | 0.2
